Assays:
Zymoseptoria tritici = assay: Leaf blotch of wheat (SEPTTR) disease control on wheat seedlings; type: in vivo; set-up: key to SEPTTR 1DP, HV activity at 100 ppm (% control rating) / SEPTTR 3DC, HV activity at 100 ppm (% control rating) / SEPTTR disease control, 1DP / SEPTTR disease control, 3DC / SEPTTR 1DP disease control rating, HV activity / SEPTTR 3DC disease control rating, HV activity / SEPTTR 3DC, LV activity at 125.1 g/H (% Control rating) / SEPTTR 1DP, LV activity at 125.1 g/H (% Control rating) / SEPTTR 1DP disease control rating, LV activity at 125.1 g/H / SEPTTR 3DC disease control rating, LV activity at 125.1 g/H / SEPTTR 3DC disease control rating, HV activity at 100 ppm / SEPTTR 1DP disease control rating, HV activity at 100 ppm / HV activity at 100 ppm SEPTTR 3DC (disease control rating) / HV activity at 100 ppm SEPTTR 1DP (disease control rating) / LV activity at 125.1 g/H SEPTTR 1DP (disease control rating) / LV activity at 125.1 g/H SEPTTR 3DC (disease control rating): A: > 80; B: ≤ 80; C: Not Tested; D: No Activity Observed in the Reported Assay; conditions: for HV activity at 100 ppm SEPTTR 1DP (disease control rating) / HV activity at 100 ppm SEPTTR 3DC (disease control rating): HV application; for SEPTTR 1DP disease control rating, HV activity at 100 ppm / SEPTTR 3DC disease control rating, HV activity at 100 ppm: high volume application
Puccinia triticina = assay: Wheat brown rust (PUCCRT) disease control on wheat seedlings; type: in vivo; set-up: key to PUCCRT 3DC, HV activity at 100 ppm (% control rating) / PUCCRT disease control, 3DC / PUCCRT 1DP disease control rating, HV activity / PUCCRT 3DC disease control rating, HV activity / PUCCRT 3DC, LV activity at 125.1 g/H (% Control rating) / PUCCRT 1DP, LV activity at 125.1 g/H (% Control rating) / PUCCRT 3DC disease control rating, LV activity at 125.1 g/H / PUCCRT 1DP disease control rating, LV activity at 125.1 g/H / PUCCRT 3DC disease control rating, HV activity at 100 ppm / PUCCRT 1DP disease control rating, HV activity at 100 ppm / HV activity at 100 ppm PUCCRT 3DC (disease control rating) / LV activity at 125.1 g/H PUCCRT 1DP (disease control rating) / LV activity at 125.1 g/H PUCCRT 3DC (disease control rating): A: > 80; B: ≤ 80; C: Not Tested; D: No Activity Observed in the Reported Assay; conditions: for HV activity at 100 ppm PUCCRT 1DP (disease control rating) / HV activity at 100 ppm PUCCRT 3DC (disease control rating): HV application; for PUCCRT 1DP disease control rating, HV activity at 100 ppm / PUCCRT 3DC disease control rating, HV activity at 100 ppm: high volume application
[1] = low volume application, 125.1 g/H, 1 Day Protectant, wheat leaf blotch
[2] = low volume application, 125.1 g/H, 3 Day Curative, wheat leaf blotch
[3] = low volume application, 125.1 g/H, 1 Day Protectant, wheat brown rust
[4] = low volume application, 125.1 g/H, 3 Day Curative, wheat brown rust
[5] = 1 Day Protectant, wheat leaf blotch
[6] = 3 Day Curative, wheat leaf blotch
[7] = 1 Day Protectant, wheat brown rust
[8] = 3 Day Curative, wheat brown rust
[9] = low volume application, 125.1 g/H, 1 day protectant
[10] = low volume application, 125.1 g/H, 3 day curative
[11] = low volume application, 125.1 g/H, 1 Day Protectant
[12] = low volume application, 125.1 g/H, 3 Day Curative

Compound: CCOc1ccnc(C(=O)N[C@@H](C)C(=O)O[C@@H](C)[C@@H](CC(C)C)Oc2cccc(F)c2)c1OC(C)=O [Cmpd 1107]
- LV activity at 125.1 g/H SEPTTR 1DP (disease control rating) (Zymoseptoria tritici; [1]): D
- LV activity at 125.1 g/H SEPTTR 3DC (disease control rating) (Zymoseptoria tritici; [2]): D
- LV activity at 125.1 g/H PUCCRT 1DP (disease control rating) (Puccinia triticina; [3]): B (≤ 80)
- LV activity at 125.1 g/H PUCCRT 3DC (disease control rating) (Puccinia triticina; [4]): B (≤ 80)

Compound: COc1ccnc(C(=O)N[C@@H](C)C(=O)O[C@@H](C)[C@@H](CC(C)C)OCC(C)C)c1O [Cmpd 1044]
- HV activity at 100 ppm SEPTTR 1DP (disease control rating) (Zymoseptoria tritici; [5]): B (≤ 80)
- HV activity at 100 ppm SEPTTR 3DC (disease control rating) (Zymoseptoria tritici; [6]): A (> 80)
- HV activity at 100 ppm PUCCRT 1DP (disease control rating) (Puccinia triticina; [7]): A (> 80)
- HV activity at 100 ppm PUCCRT 3DC (disease control rating) (Puccinia triticina; [8]): A (> 80)

Compound: C=CC[C@@H](Oc1ccccc1)[C@H](C)OC(=O)[C@H](C)NC(=O)c1nccc(OC)c1OCOC(C)=O [Cmpd 698]
- SEPTTR 1DP disease control rating, LV activity at 125.1 g/H (Zymoseptoria tritici; [9]): B (≤ 80)
- SEPTTR 3DC disease control rating, LV activity at 125.1 g/H (Zymoseptoria tritici; [10]): A (> 80)
- PUCCRT 1DP disease control rating, LV activity at 125.1 g/H (Puccinia triticina; [9]): A (> 80)
- PUCCRT 3DC disease control rating, LV activity at 125.1 g/H (Puccinia triticina; [10]): A (> 80)

Compound: CC(C)C[C@@H](Oc1cccc(F)c1)[C@H](C)OC(=O)[C@H](C)NC(=O)c1ncccc1O [Cmpd 1035]
- HV activity at 100 ppm SEPTTR 1DP (disease control rating) (Zymoseptoria tritici; [5]): B (≤ 80)
- HV activity at 100 ppm SEPTTR 3DC (disease control rating) (Zymoseptoria tritici; [6]): D
- HV activity at 100 ppm PUCCRT 1DP (disease control rating) (Puccinia triticina; [7]): A (> 80)
- HV activity at 100 ppm PUCCRT 3DC (disease control rating) (Puccinia triticina; [8]): A (> 80)

Compound: CC[C@H](CCC(C)C)[C@@H](OCC1CC1)[C@H](C)OC(=O)[C@H](C)NC(=O)c1nccc(OC)c1OC(C)=O [Cmpd 507]
- SEPTTR 1DP, LV activity at 125.1 g/H (% Control rating) (Zymoseptoria tritici; [11]): B (≤ 80)
- SEPTTR 3DC, LV activity at 125.1 g/H (% Control rating) (Zymoseptoria tritici; [12]): B (≤ 80)
- PUCCRT 1DP, LV activity at 125.1 g/H (% Control rating) (Puccinia triticina; [11]): B (≤ 80)
- PUCCRT 3DC, LV activity at 125.1 g/H (% Control rating) (Puccinia triticina; [12]): B (≤ 80)

Compound: COc1ccnc(C(=O)N[C@@H](C)C(=O)O[C@H](C)[C@@H](Oc2ccccc2)c2ccccc2)c1O [Cmpd 350]
- SEPTTR 1DP disease control rating, HV activity (Zymoseptoria tritici; HV application at 100 ppm, 1 Day Protectant, wheat leaf blotch): D
- SEPTTR 3DC disease control rating, HV activity (Zymoseptoria tritici; HV application at 100 ppm, 3 Day Curative, wheat leaf blotch): B (≤ 80)
- PUCCRT 1DP disease control rating, HV activity (Puccinia triticina; HV application at 100 ppm, 1 Day Protectant, wheat brown rust): D
- PUCCRT 3DC disease control rating, HV activity (Puccinia triticina; HV application at 100 ppm, 3 Day Curative, wheat brown rust): A (> 80)

Compound: COc1ccnc(C(=O)N[C@@H](C)C(=O)O[C@@H](C)[C@H](OCC2CC2)C2CCCCC2)c1O [Cmpd 816]
- SEPTTR 1DP disease control rating, HV activity at 100 ppm (Zymoseptoria tritici; 1 day protectant): B (≤ 80)
- SEPTTR 3DC disease control rating, HV activity at 100 ppm (Zymoseptoria tritici; 3 day curative): B (≤ 80)
- PUCCRT 1DP disease control rating, HV activity at 100 ppm (Puccinia triticina; 1 day protectant): A (> 80)
- PUCCRT 3DC disease control rating, HV activity at 100 ppm (Puccinia triticina; 3 day curative): B (≤ 80)

Compound: COc1ccnc(C(=O)N[C@@H](C)C(=O)O[C@@H](C)[C@@H](CC(C)C)Oc2cccc(F)c2)c1OC(C)=O [Cmpd 1113]
- LV activity at 125.1 g/H SEPTTR 1DP (disease control rating) (Zymoseptoria tritici; [1]): A (> 80)
- LV activity at 125.1 g/H SEPTTR 3DC (disease control rating) (Zymoseptoria tritici; [2]): A (> 80)
- LV activity at 125.1 g/H PUCCRT 1DP (disease control rating) (Puccinia triticina; [3]): A (> 80)
- LV activity at 125.1 g/H PUCCRT 3DC (disease control rating) (Puccinia triticina; [4]): A (> 80)

Compound: COc1ccnc(C(=O)N[C@@H](C)C(=O)O[C@@H](C)[C@H](Oc2ccc(C)cc2Cl)C(C)(C)C)c1OC(C)=O [Cmpd 1067]
- LV activity at 125.1 g/H SEPTTR 1DP (disease control rating) (Zymoseptoria tritici; [1]): D
- LV activity at 125.1 g/H SEPTTR 3DC (disease control rating) (Zymoseptoria tritici; [2]): B (≤ 80)
- LV activity at 125.1 g/H PUCCRT 1DP (disease control rating) (Puccinia triticina; [3]): A (> 80)
- LV activity at 125.1 g/H PUCCRT 3DC (disease control rating) (Puccinia triticina; [4]): B (≤ 80)

Compound: COc1ccnc(C(=O)NC(C)C(=O)OC(C)COc2ccccc2)c1OCOC(C)=O (centres unmarked) [Cmpd 525]
- SEPTTR 1DP, LV activity at 125.1 g/H (% Control rating) (Zymoseptoria tritici; [11]): B (≤ 80)
- SEPTTR 3DC, LV activity at 125.1 g/H (% Control rating) (Zymoseptoria tritici; [12]): D
- PUCCRT 1DP, LV activity at 125.1 g/H (% Control rating) (Puccinia triticina; [11]): D
- PUCCRT 3DC, LV activity at 125.1 g/H (% Control rating) (Puccinia triticina; [12]): B (≤ 80)

Compound: COc1ccnc(C(=O)N[C@@H](C)C(=O)O[C@@H](C)[C@H](Oc2ccc(C)cc2Cl)C2CC2)c1O [Cmpd 1005]
- SEPTTR 1DP disease control rating, HV activity at 100 ppm (Zymoseptoria tritici; 1 day protectant): B (≤ 80)
- SEPTTR 3DC disease control rating, HV activity at 100 ppm (Zymoseptoria tritici; 3 day curative): B (≤ 80)
- PUCCRT 1DP disease control rating, HV activity at 100 ppm (Puccinia triticina; 1 day protectant): A (> 80)
- PUCCRT 3DC disease control rating, HV activity at 100 ppm (Puccinia triticina; 3 day curative): A (> 80)

From patent US20180000085A1, “USE OF PICOLINAMIDE COMPOUNDS WITH FUNGICIDAL ACTIVITY” (DOW AGROSCIENCES LLC, priority 2014, published 2018)
